Assays:
U251 monolayers = conditions: 2D U251 monolayers; cited from earlier work
mDia = conditions: cited from earlier work
Pat9 HGG neurospheres = assay: 3D matrigel invasion assay of patient-derived HGG neurospheres (Pat9); format: cell-based, human; conditions: within 24 h; for neurosphere invasion (change in area over T0): 10-50 μM at embedding, refreshed daily, maintained through 48 h, relative to controls
Method: Pat8 and Pat9 HGG neurospheres were embedded in matrigel and allowed to invade. […] Images were captured at embedding (T0) and every 24 h. Invasion area was calculated as increase in area over T0 Pat9 or Pat8 neurosphere areas (FIGS. 3A-3B, respectively). Both Pat9 and Pat8 neurospheres robustly invaded through 48 h, similar to control vehicle-treated neurospheres.
It was previously shown in U87 spheroids that IMM invasion blockade was reversible. Whether IMM anti-invasion effects were reversible was assessed (FIGS. 4A-4B). Pat9 neurospheres were incubated with vehicle or IMMs for 48 h. Drug washouts were then performed with drug-free media and invasion continued for 48 h. As before, IMM removal released invasion suppression relative to neurospheres held in IMMs for 96 h. The live-dead cell dye Draq7 was then used on invading neurospheres treated with IMMs. […] Unexpectedly, when started at 48 h post-invasion in B27-treated control invading neurospheres, IMM treatment for 48 h thereafter induced robust cell death (FIG. 4C).
(§1) Neurospheres formed spontaneously in isolated patient sample monolayer cells. Once spheres detach from monolayers, they were collected using wide-orifice pipette tips and moved to poly-HEMA (Sigma) coated U-bottom 96-well plates. Neurospheres were used upon reaching 200-250 μm diameter. Once neurospheres reached 350 μm, they were dissociated and re-plated in poly-HEMA U-bottom plates at 2000 cells/well.
(§2) 3D invasion assays were as described. Briefly, a thin layer of 5 mg/ml GFR matrigel (Corning) was placed in 8-well chamber glasses (Lab-tek). Neurospheres were added and topped with thin-layer matrigel. Matrigel polymerized for 45 min at 37° C. before addition of 250 μl of media with IMMs. Invasions were imaged at time zero (T0) and every 24 h for experimental durations. Invaded spheroids/spontaneous neurospheres were imaged using an EVOS inverted microscope with an Olympus 4×UplanFL N0.13 PhP objective lens. All measurements were completed with MetaMorph software (Molecular Devices).

[1] = test system: tumor microtubes (TMs) in Pat9 neurospheres; assay: Tumor microtube (TM) formation and length in neurosphere edge cells (IF, Metamorph); format: cell-based, human; conditions: for tumor TM length upon drug washout: 50 μM
Method: FIGS. 6A-6E: Tumor microtube shortening and amoeboid cell morphologies in IMM-treated HGG patient-derived neurospheres. […] Left-most boxes indicate areas of magnification shown. Scale bar (upper panel)=25 μm; (lower panel 100 μm). FIGS. 6B-6C show tumor TM lengths were measured using Metamorph software from cell nuclei to tumor TM ends. TMs measured from N>196 cells across three replicate experiments. TMs were measured in control (FIG. 6B), or drug washout experiments using 50 μM IMM01 or IMM02 where m=maintained drug and r=washout (FIG. 6C). Data are shown as scatter plots in FIGS. 6B-6C, or histograms (FIGS. 6B′, 6C′). […] FIGS. 6D, 6D′ show cellular morphologies measured in neurosphere edge cells and EI were calculated by dividing cell long by short axes, where EI=1 is a rounded cell, and E>1 is an elongated cell. N>196 cells across three replicate experiments. Data are shown as scatter plots (FIG. 6D, 6E), or histograms (FIG. 6D′, FIG. 6E′).
FIG. 11: Tumor TM measurements in HGG patient neurospheres. Pat9 neurospheres invaded for 96 h in matrigel in the presence of DMSO, 50 μM IMM01, or 50 μM IMM02. Tumor TMs were measured using Metamorph software by drawing lines (colored lines) along the length of tumor TMs from cell bodies to the end of the tumor TM using brightfield images.
IF was performed on fixed Pat9 neurospheres treated with or without IMMs for 96 h (FIGS. 5A-5B, respectively). mDia1, mDia2, F-actin, β-tubulin, or de-tyrosinated β-tubulin (glu-tubulin) were visualized (to assess stabilized microtubules). Invaded control neurospheres had diffuse invasive fronts, with extensive symmetrical invasion away from the central neurosphere core. Both mDia1 and mDia2 were diffusely cytoplasmic. […] Some cells were enriched in traditional parallel lamellar actin stress fibers and others with numerous radial F-actin-enriched filopodia-like structures (FIG. 8). […]
Cell protrusions were confirmed by IF to robustly express punctate Connexin-43 (FIG. 6A). […] Tumor TM length was measured in neurosphere edge cells in IMM-treated Pat9 neurospheres. […]

Pat8 HGG neurospheres = assay: 3D matrigel invasion assay of patient-derived HGG neurospheres (Pat8); format: cell-based, human; conditions: 10-50 μM at embedding, refreshed daily, within 24 h, maintained through 48 h, relative to controls
Method: Pat8 and Pat9 HGG neurospheres were embedded in matrigel and allowed to invade. At embedding, neurospheres were treated with 10-50 μM IMM01 or IMM02 and refreshed daily. Images were captured at embedding (T0) and every 24 h. Invasion area was calculated as increase in area over T0 Pat9 or Pat8 neurosphere areas (FIGS. 3A-3B, respectively). Both Pat9 and Pat8 neurospheres robustly invaded through 48 h, similar to control vehicle-treated neurospheres.
as §1
as §2, with “All measurements were completed with MetaMorph software (Molecular Devices).” left out

p53 = conditions: cited from earlier work

SMILES | cell cycle progression, apoptosis/multi-nucleation (U251 monolayers) | mDia autoinhibition / F-actin polymerization (mDia) | neurosphere invasion (change in area over T0) (Pat9 HGG neurospheres) | tumor TM length upon drug washout [1] | neurosphere invasion (change in area over T0) (Pat8 HGG neurospheres) | p53 expression (p53) | neurosphere invasion (Pat9 HGG neurospheres; 1 μM) | tumor TM formation ([1]; 1 μM, within 24 h)
CC(C)(C)NC(=S)N/N=C/c1ccc(O)cc1O [IMM01, 2-[(2,4-dihydroxyphenyl)methylene]-N-(1,1-dimethylethyl)-hydrazinecarbothioamide] | neither changes in cell cycle progression, nor increases in apoptosis/multi-nucleation | relieved mDia autoinhibition to induce F-actin polymerization | significantly halted invasion | recovered to controls | significantly halted invasion |  |  | 
C/C(=N\NC(=S)NC(C)(C)C)c1cc(F)cc(F)c1O [IMM02, N1-(tert-butyl)-2-[1-(3,5-difluoro-2-hydroxyphenyl)ethylidene]hydrazine-1-carbothioamide] | neither changes in cell cycle progression, nor increases in apoptosis/multi-nucleation | relieved mDia autoinhibition to induce F-actin polymerization | significantly halted invasion | recovered to controls | significantly halted invasion |  |  | 
O=C1NC(=S)N(c2cccc(Br)c2)C(=O)/C1=C/c1ccco1 [SMIFH2] |  |  |  |  |  | downregulated p53 expression |  | 
COC(=O)Nc1nc2ccc(C(=O)c3cccs3)cc2[nH]1 [nocadazole, nocodazole, reference compound] |  |  |  |  |  |  | halted | halted

From patent publication US11547682B2, “Use of formin agonists in overcoming brain tumor radio- and chemo-resistance by targeting tumor microtubes” (The University of Toledo, priority 2019, dated 2023)
